Assay results: patent US7973080B2 (Ambria Dermatology AB, priority 2003, dated 2011)

Tests used:
Assay in all cases: MIC by standard blood agar dilution technique
[1] = tested on: Streptococcus group C; settings: inoculate size 10^3
Description: (§1) The following bacteria were investigated: methicillin-resistant Staphylococcus aureus (MSRA), fucidic acid-resistant S. aureus, non-resistant S. pyogenes, coagulation-negative staphylococci (for resistance, see Table 1 below) vancomycin-resistant enterococci (Enterococcus CCUG van A and van B), non-resistant Escherichia coli, Acinetobacter resistant against cefadroxil, nitrofurantin, mecillinam, Serratia maltophilia resistant against most types of antibiotics, Enterobacter (for resistance, see Table 1 below; additionally resistant against cefadroxil and nitrofurantin), non-resistant α-streptococci, non-resistant Streptococcus Group G, Pseudomonas aeruginosa (for resistance, see Table 2 below). Inocula of 10^3 and 10^5 bacteria were used.

[2] = tested on: Streptococcus group G; settings: inoculate size 10^3
Description: as §1

[3] = tested on: coagulation-negative staphylococci
Description: as §1

[4] = tested on: Pseudomonas aeruginosa
Description: as §1

[5] = tested on: S. aureus
Description: as §1

Compound: OCCCCCO [pentane-1,5-diol]
- MIC (% by weight of pentane-1,5-diol) ([1]; Streptococcus group C 900 × 1618): 7.5 % by weight
- MIC (% by weight of pentane-1,5-diol) ([1]; Streptococcus group C 912 × 1114): 10.0 % by weight
- MIC (% by weight of pentane-1,5-diol) ([1]; Streptococcus group C 912 × 1185): 10.0 % by weight
- MIC (% by weight of pentane-1,5-diol) ([2]; Strepotocccus group G 912 × 1106): 7.5 % by weight
- MIC (% by weight of pentane-1,5-diol) ([2]; Streptococcus group G 900 × 1714): 10.0 % by weight
- MIC (% by weight of pentane-1,5-diol) ([2]; Streptococcus group G 915 × 1095): 7.5 % by weight
- MIC (% by weight of pentane-1,5-diol) ([2]; Streptococcus group G 915 × 1146): 7.5 % by weight
- MIC (% by weight of pentane-1,5-diol) ([2]; Streptococcus group G 916 × 10985): 7.5 % by weight
- MIC (% by weight of pentane-1,5-diol) ([3]; Coag.neg.staph. 900 × 5515, inoculate size 10^3, MR fuc +): 12.5 % by weight
- MIC (% by weight of pentane-1,5-diol) ([3]; Coag.neg.staph. 900 × 5515, inoculate size 10^5, MR fuc +): 15.0 % by weight
- MIC (% by weight of pentane-1,5-diol) ([3]; Coag.neg.staph. 900 × 5516, inoculate size 10^3, MR fuc −): 7.5 % by weight
- MIC (% by weight of pentane-1,5-diol) ([3]; Coag.neg.staph. 900 × 5516, inoculate size 10^5, MR fuc −): 12.5 % by weight
- MIC (% by weight of pentane-1,5-diol) ([3]; Coag.neg.staph. 900 × 5525, inoculate size 10^5, MR fuc −): 7.5 % by weight
- MIC (% by weight of pentane-1,5-diol) ([3]; Coag.neg.staph. 900 × 5538, inoculate size 10^3, MR fuc −): 5.0 % by weight
- MIC (% by weight of pentane-1,5-diol) ([3]; Coag.neg.staph. 900 × 5538, inoculate size 10^5, MR fuc −): 12.5 % by weight
- MIC (% by weight of pentane-1,5-diol) ([3]; Coag.neg.staph. 900 × 5539, inoculate size 10^3, MR fuc −): 7.5 % by weight
- MIC (% by weight of pentane-1,5-diol) ([3]; Coag.neg.staph. 900 × 5539, inoculate size 10^5, MR fuc −): 10.0 % by weight
- MIC (% by weight of pentane-1,5-diol) ([3]; Coag.neg.staph. 902 × 14176 large, inoculate size 10^3, MR fuc −): 7.5 % by weight
- MIC (% by weight of pentane-1,5-diol) ([3]; Coag.neg.staph. 902 × 14176 large, inoculate size 10^5, MR fuc −): 20.0 % by weight
- MIC (% by weight of pentane-1,5-diol) ([3]; Coag.neg.staph. 902 × 14176 small, inoculate size 10^3, MR fuc +): 7.5 % by weight
- MIC (% by weight of pentane-1,5-diol) ([3]; Coag.neg.staph. 902 × 14176 small, inoculate size 10^5, MR fuc +): 10.0 % by weight
- MIC (% by weight of pentane-1,5-diol) ([3]; Coag.neg.staph. 904 × 2816, inoculate size 10^3, MR fuc +): 10.0 % by weight
- MIC (% by weight of pentane-1,5-diol) ([3]; Coag.neg.staph. 904 × 2816, inoculate size 10^5, MR fuc +): 17.5 % by weight
- MIC (% by weight of pentane-1,5-diol) ([3]; Coag.neg.staph. 916 × 8132, inoculate size 10^3, MR fuc −): 7.5 % by weight
- MIC (% by weight of pentane-1,5-diol) ([3]; Coag.neg.staph. 916 × 8132, inoculate size 10^5, MR fuc −): 12.5 % by weight
- MIC (% by weight of pentane-1,5-diol) ([3]; Coag.neg.staph. 916 × 8188, inoculate size 10^3, MR fuc −): 15.0 % by weight
- MIC (% by weight of pentane-1,5-diol) ([3]; Coag.neg.staph. 916 × 8188, inoculate size 10^5, MR fuc −): 17.5 % by weight
- MIC (% by weight of pentane-1,5-diol) ([4]; P. aeruginosa 921 × 17701, inoculate size 10^3, MR cip +, tri +): 5.0 % by weight
- MIC (% by weight of pentane-1,5-diol) ([4]; P. aeruginosa 921 × 17748, inoculate size 10^3, MR cip −, tri +): 5.0 % by weight
- MIC (% by weight of pentane-1,5-diol) ([4]; P. aeruginosa 921 × 17756, inoculate size 10^3, MR cip +, tri +): 5.0 % by weight
- MIC (% by weight of pentane-1,5-diol) ([4]; P. aeruginosa 921 × 57855, inoculate size 10^5, MR van +, tri −): 10.0 % by weight
- MIC (% by weight of pentane-1,5-diol) ([4]; P. aeruginosa CCUG 17619, inoculate size 10^3): 5.0 % by weight
- MIC (% by weight of pentane-1,5-diol) ([4]; P. aeruginosa CCUG 17619, inoculate size 10^5): 5.0 % by weight
- MIC (% by weight of pentane-1,5-diol) ([5]; S. aureus 916 × 8137, inoculate size 10^3, MR fuc −): 12.5 % by weight
- MIC (% by weight of pentane-1,5-diol) ([5]; S. aureus 916 × 8137, inoculate size 10^5, MR fuc −): 10.0 % by weight
- MIC (% by weight of pentane-1,5-diol) ([5]; S. aureus 916 × 8143, inoculate size 10^3, MR fuc −): 12.5 % by weight
- MIC (% by weight of pentane-1,5-diol) ([5]; S. aureus 916 × 8143, inoculate size 10^5, MR fuc −): 12.5 % by weight
- MIC (% by weight of pentane-1,5-diol) ([5]; S. aureus 916 × 8150, inoculate size 10^3, MR fuc −): 12.5 % by weight
- MIC (% by weight of pentane-1,5-diol) ([5]; S. aureus 916 × 8150, inoculate size 10^5, MR fuc −): 15.0 % by weight
- MIC (% by weight of pentane-1,5-diol) ([5]; S. aureus 916 × 8155, inoculate size 10^3, MR fuc −): 10.0 % by weight
- MIC (% by weight of pentane-1,5-diol) ([5]; S. aureus 916 × 8155, inoculate size 10^5, MR fuc −): 12.5 % by weight
- MIC (% by weight of pentane-1,5-diol) ([5]; S. aureus 916 × 8158, inoculate size 10^3, MR fuc −): 12.5 % by weight
- MIC (% by weight of pentane-1,5-diol) ([5]; S. aureus 916 × 8158, inoculate size 10^5, MR fuc −): 15.0 % by weight
- MIC (% by weight of pentane-1,5-diol) ([5]; S. aureus 916 × 8163, inoculate size 10^3, MR fuc +): 12.5 % by weight
- MIC (% by weight of pentane-1,5-diol) ([5]; S. aureus 916 × 8163, inoculate size 10^5, MR fuc +): 17.5 % by weight
- MIC (% by weight of pentane-1,5-diol) ([5]; S. aureus 916 × 8180, inoculate size 10^3, MR fuc −): 12.5 % by weight
- MIC (% by weight of pentane-1,5-diol) ([5]; S. aureus 916 × 8180, inoculate size 10^5, MR fuc −): 15.0 % by weight
- MIC (% by weight of pentane-1,5-diol) ([5]; S. aureus 916 × 8181, inoculate size 10^3, MR fuc −): 12.5 % by weight
- MIC (% by weight of pentane-1,5-diol) ([5]; S. aureus 916 × 8181, inoculate size 10^5, MR fuc −): 15.0 % by weight
- MIC (% by weight of pentane-1,5-diol) ([5]; S. aureus 916 × 8183, inoculate size 10^3, MR fuc −): 12.5 % by weight
- MIC (% by weight of pentane-1,5-diol) ([5]; S. aureus 916 × 8183, inoculate size 10^5, MR fuc −): 17.5 % by weight
- MIC (% by weight of pentane-1,5-diol) ([5]; S. aureus 916 × 8184, inoculate size 10^3, MR fuc +): 10.0 % by weight
- MIC (% by weight of pentane-1,5-diol) ([5]; S. aureus 916 × 8184, inoculate size 10^5, MR fuc +): 12.5 % by weight
- MIC (% by weight of pentane-1,5-diol) ([5]; S. aureus 916 × 8191, inoculate size 10^3, MR fuc −): 12.5 % by weight
